From patent US20190125822A1, “COMPOSITION FOR IMPROVING OR PREVENTING NONALCOHOLIC FATTY LIVER” (KOHJIN LIFE SCIENCES CO., LTD., priority 2015, published 2019)

How the values were obtained:
[1] = system: subjects who had NAFLD in 31 IU/L or more of ALT; details: 300 mg per day oral
[2] = system: Mice (C57/B6J) fed with high-fat food; details: 20 weeks old
From the text: Mice (C57/B6J, 8 weeks old male) were divided into 4 groups (5 animals each), and the first group (DB) was freely fed with ordinary food (CertifiedDiet “MF” manufactured by Oriental Yeast Co., ltd.). The second group (HFD) was freely fed with high-fat food (High Fat Diet 32, manufactured by CLEA Japan, Inc.), […].
When the mouse was 20 weeks old, the body weight, the liver weight, the serum aspartate aminotransferase (AST), the alanine aminotransferase (ALT), the serum triglyceride (TG), the free fatty acid value (FFA) and the total cholesterol value (T-cho) were measured.

[3] = HFD6 and HFD60 groups in comparison to HFD group
[4] = high-fat food, glutathione 6 and 60 mg/kg/day in water

## N[C@@H](CCC(=O)N[C@@H](CS)C(=O)NCC(=O)O)C(=O)O [glutathione]
[1]; after treatment, individual subject per table row
  FibroScan (after treatment) CAP: 280 dBe
[1]; Case IDs 1 to 9 of 16 subjects, at any week after initiation
  improvement of ALT after administration in comparison to ALT before the administration (0 wk): ≥ 20%
[2]; [3]
  FFA (free fatty acid value): significant decrease
  T-cho (total cholesterol value): significant decrease
[2]; [4]
  liver weight: decreased dependently on the concentration
  ratio of liver weight/body weight: decrease of the body weight ratio was also recognized
[2]; high-fat food, glutathione 6 or 60 mg/kg/day in water
  body weight: decrease of the body weight was recognized
[2]; serum, HFD6 and HFD60 groups in comparison to HFD group
  TG (triglyceride value): significant decrease
